Reference: patent US20100292222A1, “CHEMICAL COMPOUNDS 751” (ASTRAZENECA AB, priority 2009, published 2010)

Biological target: T1, Androgen Receptor (AR) (Homo sapiens, UniProt P10275, T878A)
T1 construct: cell based immuno-fluorescence assay using the LNCaP prostate epithelial cell line; host or cells: LNCaP clone FGC prostate carcinoma cells
T1 sequence (P10275 1-920 T878A): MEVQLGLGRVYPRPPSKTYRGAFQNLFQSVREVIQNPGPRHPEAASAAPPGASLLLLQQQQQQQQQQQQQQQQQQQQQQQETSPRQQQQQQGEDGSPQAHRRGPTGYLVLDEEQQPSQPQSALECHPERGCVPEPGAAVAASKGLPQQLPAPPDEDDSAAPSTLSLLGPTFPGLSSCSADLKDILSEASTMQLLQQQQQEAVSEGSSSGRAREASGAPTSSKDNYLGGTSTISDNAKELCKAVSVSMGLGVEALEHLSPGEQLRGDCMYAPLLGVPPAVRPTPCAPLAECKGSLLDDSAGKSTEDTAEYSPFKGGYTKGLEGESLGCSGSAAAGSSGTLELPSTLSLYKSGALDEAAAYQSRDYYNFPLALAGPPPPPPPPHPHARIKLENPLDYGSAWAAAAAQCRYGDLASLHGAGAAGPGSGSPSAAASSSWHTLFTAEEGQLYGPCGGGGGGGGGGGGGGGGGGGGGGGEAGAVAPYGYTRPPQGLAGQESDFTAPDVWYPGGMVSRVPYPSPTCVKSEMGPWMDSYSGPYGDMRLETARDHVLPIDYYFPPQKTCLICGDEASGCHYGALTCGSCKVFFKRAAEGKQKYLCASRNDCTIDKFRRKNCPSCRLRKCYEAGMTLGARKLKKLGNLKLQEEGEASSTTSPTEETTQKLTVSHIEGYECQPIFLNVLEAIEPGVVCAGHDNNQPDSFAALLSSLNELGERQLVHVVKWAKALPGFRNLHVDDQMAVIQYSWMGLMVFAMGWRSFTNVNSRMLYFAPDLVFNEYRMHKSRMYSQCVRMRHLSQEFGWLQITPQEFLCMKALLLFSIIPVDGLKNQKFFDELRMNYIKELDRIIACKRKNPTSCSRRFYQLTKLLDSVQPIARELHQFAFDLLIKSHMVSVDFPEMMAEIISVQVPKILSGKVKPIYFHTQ
Assay: LNCaP Androgen Receptor Down-Regulation Cell Assay
Type: cell-based
Settings: LNCaP prostate carcinoma cell line; 20-22 hours incubation; immunofluorescence; 50% reduction of the AR signal
Description: The ability of compounds to reduce Androgen Receptor (AR) numbers was assessed in a cell based immuno-fluorescence assay using the LNCaP prostate epithelial cell line.
This immunofluorescence end point assay measures the ability of a test compound to down-regulate and reduce measured levels of the AR in the LNCaP prostate carcinoma cell line (LNCaP clone FGC (CRL-1740) obtained from the American Type Culture Collection (ATCC)).
LNCaP cells were cultured in Growth Medium (phenol red free Roswell Park Memorial Institute (RPMI) 1640 (Invitrogen Code no. 11835-063) containing 2 mM L-Glutamine (Invitrogen Code no. 25030-024) and 1% (v/v) Penicillin/Streptomycin (10000 units/ml Penicillin and 10000 μg/ml of Streptomycin utilising penicillin G (sodium salt) and streptomycin sulphate: prepared in normal saline, Invitrogen Code no. 15140122) and 10% (v/v) foetal bovine serum (FBS)) in a 5% CO2 air incubator at 37° C. Cells for assay were harvested from T175 stock flasks by washing once in PBS (phosphate buffered saline, pH 7.4) (Invitrogen Code no. 14190-094) and harvested using 5 mls of 1× Trypsin/ethylaminediaminetetraacetic acid (EDTA) (10× Trypsin-EDTA, 5.0 g/L Trypsin, 2.0 g/L of EDTA•4Na and 8.5 g/L of NaCl, without Phenol Red, Invitrogen Code no. 15400-054) diluted in PBS solution. A 5 ml volume of Growth Medium was added to each flask (as above except that 5% (v/v) charcoal stripped FBS (HyClone Code no. SH30068.03) was included instead of 10% (v/v) FBS). Cells were syringed at least twice using a sterile 18G×1.5″ (1.2×40 mm) broad gauge needle and cell density was measured using a haemocytometer. Cells were further diluted in Growth Medium plus 5% (v/v) charcoal stripped FBS and seeded at a density of 6.5×10^3 cells per well (in 90 ul) into transparent, black, tissue culture treated 96 well plates (Packard, No. 6005182).
Test data reported herein was generated using two different compounds preparation and dosing methods. In method (1) a 10 mM compound stock solution in 100% (v/v) DMSO was serially diluted in 4-fold steps in 100% (v/v) DMSO using a Thermo Scientific Matrix SerialMate. The diluted compounds were then further diluted 1 in 30 in assay media using a Thermo Scientific Matrix PlateMate and a 10 μl aliquot of this dilution was dosed to cells manually using a multi-channel pipette. In method (2) starting with a 10 mM compound stock solution, the Labcyte Echo 550 was used to generate a compound concentration response set diluted in 30 μl of assay media. The Echo 550 is a liquid handler that uses acoustic technology to perform direct microplate-to-microplate transfers of DMSO compound solutions. The system can be programmed to transfer volumes as low as […] in multiple increments between microplates and in so doing generates a serial dilution of compound which is then back-filled to normalise the DMSO is concentration across the dilution range. A 10 μl volume of diluted compound is then dosed to cells using a Thermo Scientific Matrix PlateMate.
Plates were incubated overnight at 37° C., 5% CO2. Wells were then dosed with compound prepared by one of the 2 methods above and further incubated for 20-22 hours at 37° C., 5% CO2. Plates were fixed by the addition of 20 μl of 10% (v/v) formaldehyde solution (in PBS) to each well (final formaldehyde conc.=1.67% (v/v)) and left at room temperature for 10 mins. This fixative solution was removed and cells were washed with 250 μl of PBS/0.05% (v/v) Tween 20 (PBST) using an automated plate washer. This process was then repeated twice more.
Immunostaining was performed at room temperature. Cells were permeabilised by the addition of 35 μl of PBS containing 0.5% Tween 20 and incubated for 1 hour at room temperature. Permeabilisation solution was removed and cells were washed with 250 μl of PBST using an automated plate washer. This process was then repeated twice more. […]

`CCN1CCN(CCOc2ccc(C3(O)CCN(c4ccc5nnc(C(F)(F)F)n5n4)CC3)cc2)CC1=O` [Example 37, 1-ethyl-4-[2-(4-{4-hydroxy-1-[3-(trifluoromethyl)[1,2,4]triazolo[4,3-b]pyridazin-6-yl]piperidin-4-yl}phenoxy)ethyl]piperazin-2-one] and `O=C1CN(CCOc2ccc(C3(O)CCN(c4ccc5nnc(C(F)(F)F)n5n4)CC3)cc2)CCN1C1CC1` [Example 38, 1-cyclopropyl-4-[2-(4-{4-hydroxy-1-[3-(trifluoromethyl)[1,2,4]triazolo[4,3-b]pyridazin-6-yl]piperidin-4-yl}phenoxy)ethyl]piperazin-2-one] are within 1.5-fold of each other in IC50: 390 nM for the first, 490 nM for the second.

`C[C@@H](O)C(=O)N1CCN(CCOc2ccc(C3CCN(c4ccc5nnc(C(F)(F)F)n5n4)CC3)cc2)CC1` [Example 24, (2R)-1-oxo-1-{4-[2-(4-{1-[3-(trifluoromethyl)[1,2,4]triazolo[4,3-b]pyridazin-6-yl]piperidin-4-yl}phenoxy)ethyl]piperazin-1-yl}propan-2-ol] and `CO[C@@H](C)C(=O)N1CCN(CCOc2ccc(C3CCN(c4ccc5nnc(C(F)(F)F)n5n4)CC3)cc2)CC1` [Example 25, 6-{4-[4-(2-{4-[(2S)-2-methoxypropanoyl]piperazin-1-yl}ethoxy)phenyl]piperidin-1-yl}-3-(trifluoromethyl)[1,2,4]triazolo[4,3-b]pyridazine] are within 1.5-fold of each other in IC50: 1700 nM for the first, 1200 nM for the second.

First: COC[C@@H](CN1CCN(C(C)=O)CC1)Oc1ccc(C2CCN(c3ccc4nnc(C(F)(F)F)n4n3)CC2)cc1 [Example 29, 6-(4-{4-[(1R)-2-(4-acetylpiperazin-1-yl)-1-(methoxymethyl)ethoxy]phenyl}piperidin-1-yl)-3-(trifluoromethyl)[1,2,4]triazolo[4,3-b]pyridazine]
Second: CC(=O)N1CCCN(CCOc2ccc(C3CCN(c4ccc5nnc(C(F)(F)F)n5n4)CC3)cc2)CC1 [Example 14, 6-(4-{4-[2-(4-acetyl-1,4-diazepan-1-yl)ethoxy]phenyl}piperidin-1-yl)-3-(trifluoromethyl)[1,2,4]-triazolo[4,3-b]pyridazine]
The IC50 of the first is 3.1-fold higher: 490 nM for the first, 160 nM for the second. The second is the more potent here.

`O=C1CN(CCCOc2ccc(C3CCN(c4ccc5nnc(C(F)(F)F)n5n4)CC3)cc2)CCN1C1CC1` [Example 10, 1-cyclopropyl-4-[3-(4-{1-[3-(trifluoromethyl)[1,2,4]triazolo[4,3-b]pyridazin-6-yl]piperidin-4-yl}phenoxy)propyl]piperazin-2-one] and `CCN1CCN(CCOc2ccc(C3CCN(c4ccc5nnc(C(F)(F)F)n5n4)CC3)cc2)CC1=O` [Example 18, 1-ethyl-4-[2-(4-{1-[3-(trifluoromethyl)[1,2,4]triazolo[4,3-b]pyridazin-6-yl]piperidin-4-yl}phenoxy)ethyl]piperazin-2-one] are within 1.5-fold of each other in IC50: 410 nM for the first, 310 nM for the second.

Going from `O=C(CO)N1CCN(CCOc2ccc(C3CCN(c4ccc5nnc(C(F)(F)F)n5n4)CC3)cc2)CC1` [Example 21, 2-oxo-2-{4-[2-(4-{1-[3-(trifluoromethyl)[1,2,4]triazolo[4,3-b]pyridazin-6-yl]piperidin-4-yl}phenoxy)ethyl]piperazin-1-yl]ethanol] to `COCCN1CCN(CCCOc2ccc(C3CCN(c4ccc5nnc(C(F)(F)F)n5n4)CC3)cc2)CC1=O` [Example 17, 1-(2-methoxyethyl)-4-[3-(4-{1-[3-(trifluoromethyl)[1,2,4]triazolo[4,3-b]pyridazin-6-yl]piperidin-4-yl}phenoxy)propyl]piperazin-2-one], the IC50 falls from 1800 nM to 530 nM (3.4-fold). The second is the more potent here.

Compared with `CN1CCN(CCOc2ccc(N3CCN(c4ccc5nnc(C(F)(F)F)n5n4)CC3)cc2)CC1=O` [Example 4, 1-methyl-4-[2-(4-{4-[3-(trifluoromethyl)[1,2,4]triazolo[4,3-b]pyridazin-6-yl]piperazin-1-yl}phenoxy)ethyl]piperazin-2-one], `CC(=O)N1CCN(CCCOc2ccc(N3CCN(c4ccc5nnc(C(F)(F)F)n5n4)CC3)cc2)CC1` [Example 1.1, 6-(4-{4-[3-(4-acetylpiperazin-1-yl)propoxy]phenyl}piperazin-1-yl)-3-(trifluoromethyl)[1,2,4]-triazolo[4,3-b]pyridazine] is 3.8-fold lower in IC50: 5700 nM for the first, 1500 nM for the second. The second is the more potent here.
